Measurements as given in US8133898B2, “Renin inhibitors” (Takeda Pharmaceutical Company Limited, priority 2008, dated 2012).

Legend:
Human DPP-IV = Human DPP-IV (Homo sapiens, UniProt P27487); test: in vitro enzymatic activity of inhibitors against DPP-IV; type: biochemical; settings: AP-AFC substrate
Protocol: Solutions of test compounds in varying concentrations ([…]) were prepared in dimethyl sulfoxide (DMSO) and then diluted into assay buffer comprising: 20 mM Tris, pH 7.4; 20 mM KCl; and 0.1 mg/mL BSA. Human DPP-IV (0.1 nM final concentration) was added to the dilutions and pre-incubated for 10 minutes at ambient temperature before the reaction was initiated with A-P-7-amido-4-trifluoromethylcoumarin (AP-AFC; 10 μM final concentration). The total volume of the reaction mixture was 10-100 μL depending on assay formats used (384 or 96 well plates). The reaction was followed kinetically (excitation λ=400 nm; emission λ=505 nm) for 5-10 minutes or an end-point was measured after 10 minutes. Inhibition constants (IC50) were calculated from the enzyme progress curves using standard mathematical models.

Recombinant human renin = molecular target: T1, Recombinant human renin (Homo sapiens, UniProt P00797); test: in vitro enzymatic activity of renin inhibitors (fluorescence); type: biochemical; settings: fluorogenic peptide substrate
T1 construct: with trypsin, and isolate the active form (residues 67-406); made in house; host or cells: FreeStyle 293-F cells (transient expression of pcDNA3.1(+)/hREN)
T1 sequence (P00797 67-406): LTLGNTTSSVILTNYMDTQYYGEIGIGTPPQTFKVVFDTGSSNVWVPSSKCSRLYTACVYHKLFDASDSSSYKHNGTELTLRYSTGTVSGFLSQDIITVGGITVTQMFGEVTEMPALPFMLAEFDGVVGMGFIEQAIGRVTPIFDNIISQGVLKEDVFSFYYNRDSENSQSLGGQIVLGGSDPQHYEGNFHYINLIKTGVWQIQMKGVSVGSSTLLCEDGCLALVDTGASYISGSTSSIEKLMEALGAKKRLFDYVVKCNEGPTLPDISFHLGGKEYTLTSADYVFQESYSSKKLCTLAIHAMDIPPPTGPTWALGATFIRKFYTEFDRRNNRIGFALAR
Text: Test compounds in varying concentrations may be reacted with recombinant human renin in the presence of substrate, e.g., QXL520-γ-Abu-Ile-His-Pro-Phe-His-Leu-Val-Ile-His-Thr-Lys (HiLyteFluo488)-Arg-OH (Anaspec, San Jose, Calif.). The reaction can be followed kinetically using fluorescence (excitation λ=485 nm; emission λ=538 nm). Inhibition constants (IC50) may be calculated by non-linear curve fitting of the compound concentrations and fluorescence intensities to the standard IC50 equation.
Solutions of test compounds in varying concentrations (≦2 mM final concentration) are prepared in dimethyl sulfoxide (DMSO) and then diluted into assay buffer comprising 50 mM Hepes, 1 mM EDTA, 1 mM DTT, 0.1 mg/ml BSA, 0.01% Brij35, pH 7.4. Alternatively, the assay can be performed with a high BSA concentration, wherein the buffer contains an additional 2% BSA.
Recombinant human renin (3 nM final concentration) is added to the dilutions and pre-incubated with the compounds for 10 minutes at 37° C. As described in Examples A-C above, human renin can be obtained by expressing preprorenin (residue 1-406) in mammalian cells, treating the prorenin (residues 24-406) contained in the culture supernatant with trypsin, and isolate the active form (residues 67-406). After pre-incubation, the reaction is initiated with 1 μM of substrate QXL520-γ-Abu-Ile-His-Pro-Phe-His-Leu-Val-Ile-His-Thr-Lys (HiLyteFluo488)-Arg-OH (Anaspec, San Jose, Calif.). The final DMSO in the assay is 5%. The total volume of the reaction mixture is 20 μL, which can be placed on Greiner 384-well small volume plates.
Renin activity may be determined via fluorescence (excitation λ=485 nm; emission λ=538 nm), e.g., on a Molecular Devices SPECTROmax GEMINI XPS. The fluorescence intensity is determined upon the addition of substrate and determined again after incubation at 37° C. for one hour. The fluorescence intensity of a blank (no inhibition) using vehicle alone is also determined. Renin activity is linearly proportional to the change in fluorescence observed (final—initial).
The percent inhibition of renin at a given compound concentration is defined as: 100%×[1−(Fcompound/Fblank)] where Fcompound is the observed fluorescence at a given concentration of test compound and Fblank is the observed fluorescence in the presence of vehicle alone.
The pIC50 value (negative log of the molar concentration of the compound that produces 50% inhibition) of a test compound is calculated by non-linear least squares curve fitting of the equation: Percent Inhibition=100%/(1+(10−pIC50/10 log [I])) to percent inhibition versus compound concentration. The 50% inhibitory concentration (IC50) of a test compound is calculated by raising 10 to the negative pIC50 (10-pIC50).

Human DPP-IV, sequence (P27487 whole entry): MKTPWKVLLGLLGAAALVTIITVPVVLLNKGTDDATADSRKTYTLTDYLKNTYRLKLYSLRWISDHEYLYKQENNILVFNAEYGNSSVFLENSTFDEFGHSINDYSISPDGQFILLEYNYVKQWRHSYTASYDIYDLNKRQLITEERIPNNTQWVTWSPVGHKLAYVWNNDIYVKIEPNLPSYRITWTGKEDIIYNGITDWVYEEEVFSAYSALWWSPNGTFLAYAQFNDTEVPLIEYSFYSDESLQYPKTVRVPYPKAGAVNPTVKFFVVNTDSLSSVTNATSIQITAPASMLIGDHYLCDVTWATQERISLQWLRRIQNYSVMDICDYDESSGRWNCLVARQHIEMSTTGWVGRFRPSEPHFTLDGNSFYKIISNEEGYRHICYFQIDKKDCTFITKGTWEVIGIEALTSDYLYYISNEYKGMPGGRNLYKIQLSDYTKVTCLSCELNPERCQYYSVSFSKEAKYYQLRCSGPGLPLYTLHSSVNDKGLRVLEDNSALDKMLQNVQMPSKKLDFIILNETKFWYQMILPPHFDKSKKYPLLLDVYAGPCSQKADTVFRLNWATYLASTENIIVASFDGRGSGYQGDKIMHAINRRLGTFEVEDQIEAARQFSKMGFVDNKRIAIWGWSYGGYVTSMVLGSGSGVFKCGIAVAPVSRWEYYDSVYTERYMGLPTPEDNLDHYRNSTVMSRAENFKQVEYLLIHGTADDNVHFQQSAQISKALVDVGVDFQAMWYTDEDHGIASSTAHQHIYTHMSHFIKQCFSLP

6-(aminomethyl)-5-(2-bromo-5-fluorophenyl)-7-(4-(ethylamino)phenylthio)-1,3-dimethylpyrido[2,3-d]pyrimidine-2,4(1H,3H)-dione [Compound 69]
IC50 (Human DPP-IV): < 1 µM | IC50 (Recombinant human renin): 10 to 100 µM

CCOc1ccc(OCC)c(-c2c(CN)c(NCc3ccc4ccccc4c3)nc3c2c(=O)n(C)c(=O)n3C)c1 [Compound 64, 6-(aminomethyl)-5-(2,5-diethoxyphenyl)-1,3-dimethyl-7-(naphthalen-2-ylmethylamino)pyrido[2,3-d]pyrimidine-2,4(1H,3H)-dione]
IC50 (Human DPP-IV): > 100 µM | IC50 (Recombinant human renin): 1 to 10 µM

COc1ccc(F)cc1-c1c(CN)c(NCc2ccccc2C(F)(F)F)nc2c1c(=O)n(C)c(=O)n2C [Compound 87, 6-(Aminomethyl)-5-(5-fluoro-2-methoxyphenyl)-1,3-dimethyl-7-(2-(trifluoromethyl)benzylamino)pyrido[2,3-d]pyrimidine-2,4(1H,3H)-dione]
IC50 (Human DPP-IV): < 1 µM | IC50 (Recombinant human renin): 1 to 10 µM

CC(C)COc1cccc(-c2c(CN)c(N)nc3c2c(=O)n(C)c(=O)n3C)c1 [Compound 76, 7-amino-6-(aminomethyl)-5-(3-isobutoxyphenyl)-1,3-dimethylpyrido[2,3-d]pyrimidine-2,4(1H,3H)-dione]
IC50 (Human DPP-IV): 10 to 100 µM | IC50 (Recombinant human renin): > 100 µM

COc1ccc(F)cc1-c1c(CN)c(NCc2cccc(OCC(C)C)c2)nc2c1c(=O)n(C)c(=O)n2C [Compound 83, 6-(aminomethyl)-5-(5-fluoro-2-methoxyphenyl)-7-(3-isobutoxybenzylamino)-1,3-dimethylpyrido[2,3-d]pyrimidine-2,4(1H,3H)-dione]
IC50 (Human DPP-IV): < 1 µM | IC50 (Recombinant human renin): 1 to 10 µM

CC(C)COc1ccc(Cl)cc1-c1c(CN)c(NCc2ccc3ccccc3c2)nc2c1c(=O)n(C)c(=O)n2C [Compound 88, 6-(Aminomethyl)-5-(5-chloro-2-isobutoxyphenyl)-1,3-dimethyl-7-(naphthalen-2-ylmethylamino)pyrido[2,3-d]pyrimidine-2,4(1H,3H)-dione]
IC50 (Human DPP-IV): 1 to 10 µM | IC50 (Recombinant human renin): 1 to 10 µM

COc1ccc(-c2c(CN)c(NCc3ccc4ccccc4c3)nc3c2c(=O)n(C)c(=O)n3C)cc1OC [Compound 61, 6-(Aminomethyl)-5-(3,4-dimethoxyphenyl)-1,3-dimethyl-7-(naphthalen-2-ylmethylamino)pyrido[2,3-d]pyrimidine-2,4(1H,3H)-dione]
IC50 (Human DPP-IV): 10 to 100 µM | IC50 (Recombinant human renin): 1 to 10 µM

Cn1c(=O)c2c(-c3ccc(CN)cc3)c(CN)c(N)nc2n(C)c1=O [Compound 66, 7-Amino-6-(aminomethyl)-5-(4-(aminomethyl)phenyl)-1,3-dimethylpyrido[2,3-d]pyrimidine-2,4(1H,3H)-dione]
IC50 (Human DPP-IV): > 100 µM | IC50 (Recombinant human renin): 10 to 100 µM

Cn1c(=O)c2c(-c3cccc(OCc4cnc(Cl)s4)c3)c(CN)c(NCc3ccc4ccccc4c3)nc2n(C)c1=O [Compound 89, 6-(Aminomethyl)-5-(3-((2-chlorothiazol-5-yl)methoxy)phenyl)-1,3-dimethyl-7-(naphthalen-2-ylmethylamino)pyrido[2,3-d]pyrimidine-2,4(1H,3H)-dione]
IC50 (Human DPP-IV): 10 to 100 µM | IC50 (Recombinant human renin): 1 to 10 µM

CCCOc1ccc(OCCC)c(-c2c(CN)c(NCc3ccc4ccccc4c3)nc3c2c(=O)n(C)c(=O)n3C)c1 [Compound 65, 6-(Aminomethyl)-5-(2,5-dipropoxyphenyl)-1,3-dimethyl-7-(naphthalen-2-ylmethylamino)pyrido[2,3-d]pyrimidine-2,4(1H,3H)-dione]
IC50 (Human DPP-IV): > 100 µM | IC50 (Recombinant human renin): 10 to 100 µM

COc1ccc(F)cc1-c1c(CN)c(NCc2ccc3ccccc3c2)nc2c1c(=O)n(C)c(=O)n2C [Compound 70, 6-(aminomethyl)-5-(5-fluoro-2-methoxyphenyl)-1,3-dimethyl-7-(naphthalen-2-ylmethylamino)pyrido[2,3-d]pyrimidine-2,4(1H,3H)-dione]
IC50 (Human DPP-IV): < 1 µM | IC50 (Recombinant human renin): 1 to 10 µM

CCCOc1ccc(OCCC)c(CNc2nc3c(c(-c4ccc(Cl)cc4Cl)c2CN)c(=O)n(C)c(=O)n3C)c1 [Compound 84, 6-(aminomethyl)-5-(2,4-dichlorophenyl)-7-(2,5-dipropoxybenzylamino)-1,3-dimethylpyrido[2,3-d]pyrimidine-2,4(1H,3H)-dione]
IC50 (Human DPP-IV): 1 to 10 µM | IC50 (Recombinant human renin): > 100 µM

CCNCc1c(NCc2ccc3ccccc3c2)nc2c(c1-c1cc(OC)cc(OC)c1)c(=O)n(C)c(=O)n2C [Compound 86, 5-(3,5-dimethoxyphenyl)-6-((ethylamino)methyl)-1,3-dimethyl-7-(naphthalen-2-ylmethylamino)pyrido[2,3-d]pyrimidine-2,4(1H,3H)-dione]
IC50 (Human DPP-IV): > 100 µM | IC50 (Recombinant human renin): 10 to 100 µM

COc1cc(OC)cc(-c2c(CN)c(NCc3cccc(-n4cccc4)c3)nc3c2c(=O)n(C)c(=O)n3C)c1 [Compound 85, 7-(3-(1H-pyrrol-1-yl)benzylamino)-6-(aminomethyl)-5-(3,5-dimethoxyphenyl)-1,3-dimethylpyrido[2,3-d]pyrimidine-2,4(1H,3H)-dione]
IC50 (Human DPP-IV): > 100 µM | IC50 (Recombinant human renin): 1 to 10 µM

CCCOc1cc(OCCC)cc(-c2c(CN)c(NCc3ccc4ccccc4c3)nc3c2c(=O)n(C)c(=O)n3C)c1 [Compound 67, 6-(Aminomethyl)-5-(3,5-dipropoxyphenyl)-1,3-dimethyl-7-(naphthalen-2-ylmethylamino)pyrido[2,3-d]pyrimidine-2,4(1H,3H)-dione]
IC50 (Human DPP-IV): > 100 µM | IC50 (Recombinant human renin): 10 to 100 µM

Cn1c(=O)c2c(-c3cccc(OCc4cncs4)c3)c(CN)c(NCc3ccc4ccccc4c3)nc2n(C)c1=O [Compound 79, 6-(aminomethyl)-1,3-dimethyl-7-(naphthalen-2-ylmethylamino)-5-(3-(thiazol-5-ylmethoxy)phenyl)pyrido[2,3-d]pyrimidine-2,4(1H,3H)-dione]
IC50 (Human DPP-IV): 10 to 100 µM | IC50 (Recombinant human renin): 1 to 10 µM

COc1ccc(F)cc1-c1c(CN)c(NCc2cccc(OCc3ccccc3)c2)nc2c1c(=O)n(C)c(=O)n2C [Compound 82, 6-(aminomethyl)-7-(3-(benzyloxy)benzylamino)-5-(5-fluoro-2-methoxyphenyl)-1,3-dimethylpyrido[2,3-d]pyrimidine-2,4(1H,3H)-dione]
IC50 (Human DPP-IV): < 1 µM | IC50 (Recombinant human renin): 1 to 10 µM

COc1cccc(CNc2nc3c(c(-c4cc(F)ccc4OC)c2CN)c(=O)n(C)c(=O)n3C)c1 [Compound 71, 6-(aminomethyl)-5-(5-fluoro-2-methoxyphenyl)-7-(3-methoxybenzylamino)-1,3-dimethylpyrido[2,3-d]pyrimidine-2,4(1H,3H)-dione]
IC50 (Recombinant human renin): 1 to 10 µM

CCC(CC)Nc1nc2c(c(-c3cc(F)ccc3OC)c1CN)c(=O)n(C)c(=O)n2C [Compound 73, 6-(aminomethyl)-5-(5-fluoro-2-methoxyphenyl)-1,3-dimethyl-7-(pentan-3-ylamino)pyrido[2,3-d]pyrimidine-2,4(1H,3H)-dione]
IC50 (Recombinant human renin): 1 to 10 µM

CN(C)C(=O)c1cccc(-c2c(CN)c(NCc3ccc4ccccc4c3)nc3c2c(=O)n(C)c(=O)n3C)c1 [Compound 58, 3-(6-(Aminomethyl)-1,3-dimethyl-7-(naphthalen-2-ylmethylamino)-2,4-dioxo-1,2,3,4-tetrahydropyrido[2,3-d]pyrimidin-5-yl)-N,N-dimethylbenzamide]
IC50 (Recombinant human renin): 1 to 10 µM
